# Key:
# TMEM16A = molecular target: T1, TMEM16A (Homo sapiens, UniProt Q5XXA6); assay: Measurement of whole-cell Ca2+-activated Cl- current (IClCa), voltage clamp, primary PASMC; assay type: cell-based; settings: benzbromarone 30 μM; primary PASMC of both donors and IPAH patients
# T1 construct: endogenous in cells; host or cells: primary human PASMC from healthy donors and IPAH patients
# T1 sequence (Q5XXA6 1-986): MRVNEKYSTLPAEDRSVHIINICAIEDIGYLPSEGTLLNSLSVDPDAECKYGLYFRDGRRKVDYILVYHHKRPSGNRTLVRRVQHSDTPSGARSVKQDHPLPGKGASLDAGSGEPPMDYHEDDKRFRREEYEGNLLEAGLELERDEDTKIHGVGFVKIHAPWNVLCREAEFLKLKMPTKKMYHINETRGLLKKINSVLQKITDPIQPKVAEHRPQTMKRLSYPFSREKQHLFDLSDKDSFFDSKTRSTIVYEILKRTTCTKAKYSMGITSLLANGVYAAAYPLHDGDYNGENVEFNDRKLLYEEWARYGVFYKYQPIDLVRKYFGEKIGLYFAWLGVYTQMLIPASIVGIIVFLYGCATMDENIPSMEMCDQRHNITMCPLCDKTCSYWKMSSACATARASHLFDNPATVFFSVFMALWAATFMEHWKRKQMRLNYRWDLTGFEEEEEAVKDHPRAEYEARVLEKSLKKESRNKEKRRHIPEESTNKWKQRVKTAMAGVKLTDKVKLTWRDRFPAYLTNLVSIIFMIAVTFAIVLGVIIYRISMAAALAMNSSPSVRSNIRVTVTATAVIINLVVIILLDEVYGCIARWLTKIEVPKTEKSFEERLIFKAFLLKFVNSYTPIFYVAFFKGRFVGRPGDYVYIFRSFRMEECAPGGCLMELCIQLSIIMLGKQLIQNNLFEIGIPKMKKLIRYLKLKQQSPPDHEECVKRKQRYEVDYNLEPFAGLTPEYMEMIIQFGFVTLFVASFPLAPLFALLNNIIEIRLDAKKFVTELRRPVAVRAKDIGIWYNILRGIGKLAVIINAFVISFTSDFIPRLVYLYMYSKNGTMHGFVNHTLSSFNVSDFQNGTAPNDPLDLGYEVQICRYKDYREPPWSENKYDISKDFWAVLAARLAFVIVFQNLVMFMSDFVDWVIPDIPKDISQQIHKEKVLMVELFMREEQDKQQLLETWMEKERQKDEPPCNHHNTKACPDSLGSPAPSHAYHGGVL
# Protocol: For the measurement of whole-cell IClCa, PASMC grown in T-25 tissue culture flasks were freshly harvested with StemPro Accutase (Life Technologies), centrifuged (300 g, 5 min) and resuspended in Complete SMC Medium. PASMC were stored at 4° C. until use and were allowed to attach to glass coverslips for 15-30 min at room temperature before the measurements. Cells were perfused with a bath solution composed of (in mM) NaCl 150, glucose 10, HEPES 10, CaCl2 1, MgCl2 1, pH 7.4 (NaOH). The pipette solution contained (in mM) CsCl 110, TEA-Cl 20, EGTA 5, HEPES 10, Na2ATP 1, CaCl2 4.68, MgCl2 1, pH 7.2 (NaOH). The free Ca^2+ concentration of this solution was 2 μM as calculated with the MaxChelator software. In order to minimize K^+ current contamination of the recordings, after the formation of whole-cell configuration the bath solution was switched to a bath composed of (in mM) NaCl 140, glucose 10, HEPES 10, TEA-Cl 10, CaCl2 1, MgCl2 1, pH 7.4 (NaOH). In order to measure IClCa, the command potential was stepped from a 0 mV holding potential to −40, 0, +40, +80 and +120 mV for 1.5 s, allowing 0.5 s recovery time at the holding potential between each step. The average current measured between 750 and 1500 ms of each voltage step was plotted against the […]. […] Cells from the same batch that were cultured, harvested and recorded under normoxic conditions served as controls.
# [1] = system: monocrotaline (MCT)-treated rats; assay: Acute hemodynamic effects of benzbromarone in monocrotaline (MCT)-treated rats; assay type: in vivo, rat; settings: single i.v. bolus of 300 μM
# Protocol: Male Sprague-Dawley rats (body weight: approx. 250 g, Charles River) received a single subcutaneous injection of monocrotaline (MCT, 60 mg/kg, n=16) or vehicle (control group, n=8). Since significant RVSP increase and PA muscularization had been detected as early as 12 days after the injection of MCT58, two weeks after monocrotaline treatment rats were randomly ordered into two groups. Subcutaneous slow-release pellets (Innovative Research of America) that contained either benzbromarone (MCT+BBR, n=8) or vehicle (MCT+Veh, n=8) were implanted. Four weeks after monocrotaline treatment all rats were subjected to echocardiography and in vivo hemodynamic measurements, thereafter they were sacrificed for organ collection. In rats, in vivo hemodynamic measurements were conducted as described above for the mice, with the exception that for the right ventricular and the systolic blood pressures, 2 F Millar Catheters (SPR-513 and SPR-320, respectively) were used. The above described control and MCT+Veh groups were included in this study. Benzbromarone was injected into the left jugular vein as a single bolus ([…], i.v. in 100 μl saline) and pressures were monitored until a maximum effect was observed (approx. 10 minutes).
smiles,measurement,setting,value
"CCc1oc2ccccc2c1C(=O)c1cc(Br)c(O)c(Br)c1 [benzbromarone, (2-Ethyl-3-benzofuranyl)-(3,5-dibrom-4-hydroxyphenyl)ketone]",whole-cell IClCa,TMEM16A,significantly decreased
same,RVSP,[1]; MCT-treated rats,significant decrease
same,RVSP in the control animals,[1]; vehicle-treated control rats,without affecting

# Source: patent US20210156844A1, “TMEM16A Modulation for Diagnostic or Therapeutic Use in Pulmonary Hypertension (PH)” (Bayer Aktiengesellschaft, priority 2017, published 2021)
